Test results as given in patent US12138263B2, “Pyrazolo[3,4-b]pyrazine SHP2 phosphatase inhibitors and methods of use thereof” (Relay Therapeutics, Inc., priority 2018, dated 2024).

Biological target: SHP2 (Homo sapiens (Human), UniProt Q06124)
Experiment: SHP2 allosteric inhibition assay (DiFMUP prompt fluorescence)
Assay type: biochemical
Conditions: 0.25 nM SHP2 with 0.5 μM peptide IRS1_pY1172(dPEG8)pY1222, substrate DiFMUP 100 μM

Structure (SMILES)	IC50 (Table 3) [µM]	IC50 (Table 2) [µM]
COC(=O)c1nc2c(N3CCCc4ncccc43)n[nH]c2nc1N1CCC(C)(CN)CC1 [Compound 9C, methyl 6-[4-(aminomethyl)-4-methylpiperidin-1-yl]-3-(1,2,3,4-tetrahydro-1,5-naphthyridin-1-yl)-1H-pyrazolo[3,4-b]pyrazine-5-carboxylate]	< 1	
CC(C)(CN)c1cnc2c(N3CCCc4ncccc43)n[nH]c2n1 [Compound 12B, 2-(3-(3,4-dihydro-1,5-naphthyridin-1(2H)-yl)-1H-pyrazolo[3,4-b]pyrazin-6-yl)-2-methylpropan-1-amine]		≥ 10
OC1(c2cnc3c(-c4cccc(Cl)c4F)n[nH]c3n2)CCNCC1 [Compound 8B]		< 1

More lines, now with the values ahead:

IC50 (Table 3) [µM]	IC50 (Table 2) [µM]	Structure (SMILES)
< 1		COCc1nc2c(N3CCCc4ncccc43)n[nH]c2nc1N1CCC(C)(CN)CC1 [Compound 15C]
< 1		CC1(CN)CCN(c2nc3[nH]nc(N4CCCc5c4cccc5S(C)(=O)=O)c3nc2CO)CC1 [Compound 16C]
